Measurements: patent US20230110354A1, “THERAPEUTIC AGENT DELIVERY SYSTEMS AND METHODS OF FORMING AND USES THEREOF” (The Regents of the University of Colorado, a Body Corporate, priority 2020, published 2023)
Counter-ions that a name gives are not always drawn.

Columns and labels:
[1] = package insert; cited from earlier work
[2] = Lidocaine release study, lidocaine-loaded nanoparticles in crosslinked gelatin hydrogel (UV-Vis 280 nm); format: physicochemical
Description: For the lidocaine release study, a coated tubing which comprises a dried 1 cm by 0.5 cm piece of gelatin-lidocaine (100 mg lidocaine in 0.5 ml gelatin, 1% GA) was used. The coated tubing was placed in a 7 ml glass scintillation vial for the release study. The release solution medium (1 ml of PBS) was added to the scintillation vials, and the sample was incubated at 37° C. 1 ml samples were taken daily, and the release solution was replenished. The day 0 sample was taken 5 minutes after adding the release solution to the vials to measure the amount of lidocaine not incorporated into the gels.
The amount of lidocaine released as an effect of different nanoparticle formulations and differing amounts of lidocaine was determined using a UV-Vis spectrophotometer (GENESYS 10S UV-Vis) at 280 nm wavelength and samples were performed in triplicate (n=3). As a control, the same gelatin samples were prepared without the addition of lidocaine to measure any change in absorbance readings from the gel itself.

[3] = Lidocaine release study, gelatin-lidocaine hydrogel (UV-Vis 280 nm); format: physicochemical
Description: The coated tubing was placed in a 7 ml glass scintillation vial for the release study.
The release solution medium (1 ml of PBS) was added to the scintillation vials, and the sample was incubated at 37° C. 1 ml samples were taken daily, and the release solution was replenished. The day 0 sample was taken 5 minutes after adding the release solution to the vials to measure the amount of lidocaine not incorporated into the gels. […] As a control, the same gelatin samples were prepared without the addition of lidocaine to measure any change in absorbance readings from the gel itself.

[4] = In vitro protein release test from SRTG micelle system (ELISA); format: physicochemical; details: for loading efficiency of protein in the hydrogel / loaded protein released by day 1 (burst release): SRTG 5 wt% + micelle NPs; for loading efficiency of protein in the hydrogel: 500 ng of each protein, day 0 sample after 5 min; for loaded protein released by day 1 (burst release): PBS with 0.2% BSA, 37° C.; for sustained release rate: after day 0 / day 1 through 28 days
Description: Proton nuclear magnetic resonance (1H NMR) was completed with a Varian Inova 500 NMR spectrometer. 1H NMR was used to confirm the structure of PEG-PSHU-PEG. The PEG-PSHU-PEG samples to be analyzed were dissolved in 600 μL of DMSO-d6. Protein Release Test. […] Solutions were mixed and left to dissolve overnight at 4° C. […] Then, 1 mL of warm (37° C.) release solution (lx PBS with 0.2% BSA) was added to the vials. After 5 min, 1 mL of release solution was removed from each sample for the day 0 time point, and 1 mL of fresh warm release solution was added. Samples were then taken every 24 h and immediately placed in a −80° C. freezer for further analysis. Enzyme-linked immunosorbent assay (ELISA) was used to quantify the concentration of proteins in the release solution samples following the manufacturer's instructions (Peprotech, Rocky Hill, N.J.). ELISA color development was monitored with a BioTek Synergy 2 Multi-Mode Reader at 405 nm with wavelength correction set at 650 nm. The results of three replicates were averaged. The hydrogels were initially allowed to stabilize for 5 min at which a sample was taken to determine the loading efficiency of the proteins in the hydrogels (day 0).

NIH3T3 cells = details: 10 pg/mL, low serum or serum-free medium; cited from earlier work
[5] = cited from earlier work

CCN(CC)CC(=O)Nc1c(C)cccc1C [lidocaine hydrochloride]
maximum dose at one time [1]: ≤ 300 mg
maximum subcutaneous dose [1]: about 4.5 mg/kg

CCN(CC)CC(=O)Nc1c(C)cccc1C [lidocaine]
duration of sustained release of lidocaine ([2]; 20 mg and 10 mg NP groups loaded with 100 mg of lidocaine, in gelatin hydrogel, PBS, 37° C.): 10 days
duration of sustained release of lidocaine ([2]; 50 mg lidocaine groups, NP formulations in gelatin hydrogel): 11 days
period of continued stable lidocaine elution, post-sterilization ([2]; Example 6, chest tube coated with micelle-loaded crosslinked gelatin): 3 to 7 days
period of continued stable lidocaine elution, post-sterilization ([3]; Example 7, chest tube coated with lidocaine loaded crosslinked gelatin): 3 to 7 days
duration of sustained release of lidocaine ([3]; various gelatin and glutaraldehyde concentrations, coated tubing method): 10 days

PDGF
loading efficiency of protein in the hydrogel [4]: 99%
loaded protein released by day 1 (burst release) [4]: approximately 3%
sustained release rate ([4]; SRTG micelle system): 0.39 ng per day
duration of sustained release from the delivery system ([4]; in vitro, SRTG micelle system): 28 days

TGF-β1: transforming growth factor-β1, literature example
effect on growth rate of NIH3T3 cells (NIH3T3 cells): stimulated the growth rate of NIH3T3 cells

B1: IL-10: Recombinant Murine IL-10, anti-inflammatory cytokine; cited Kd is for human IL-10 (protein, UniProt P18893 19-178, looked up)
Interleukin-10: SRGQYSREDNNCTHFPVGQSHMLLELRTAFSQVKTFFQTKDQLDNILLTDSLMQDFKGYLGCQALSEMIQFYLVEVMPQAEKHGPEIKEHLNSLGEKLKTLRMRLRRCHRFLPCENKSKAVEQVKSDFNKLQDQGVYKAMNEFDIFINCIEAYMMIKMKS
loading efficiency of protein in the hydrogel [4]: 93%
loaded protein released by day 1 (burst release) [4]: approximately 21%
sustained release rate ([4]; SRTG micelle system): 0.24 ng per day
half-life in vivo [5]: less than 5 h
